The subject of one data set is HCV. The data set is described as follows: Observation in patients infected both with HIV and with HCV taking HIV protease inhibitors. In kind it is in vivo, human. The text has this:
For this reason, it is advantageous to add to the method of the invention at least one apoptosis-modulating agent.

The target of a further data set is T1, LSR receptor (Homo sapiens, UniProt Q86X29).
T1 construct: endogenous in cells; host or cells: PLC/PRF/5 human hepatocarcinoma cells
T1 sequence (Q86X29 1-649): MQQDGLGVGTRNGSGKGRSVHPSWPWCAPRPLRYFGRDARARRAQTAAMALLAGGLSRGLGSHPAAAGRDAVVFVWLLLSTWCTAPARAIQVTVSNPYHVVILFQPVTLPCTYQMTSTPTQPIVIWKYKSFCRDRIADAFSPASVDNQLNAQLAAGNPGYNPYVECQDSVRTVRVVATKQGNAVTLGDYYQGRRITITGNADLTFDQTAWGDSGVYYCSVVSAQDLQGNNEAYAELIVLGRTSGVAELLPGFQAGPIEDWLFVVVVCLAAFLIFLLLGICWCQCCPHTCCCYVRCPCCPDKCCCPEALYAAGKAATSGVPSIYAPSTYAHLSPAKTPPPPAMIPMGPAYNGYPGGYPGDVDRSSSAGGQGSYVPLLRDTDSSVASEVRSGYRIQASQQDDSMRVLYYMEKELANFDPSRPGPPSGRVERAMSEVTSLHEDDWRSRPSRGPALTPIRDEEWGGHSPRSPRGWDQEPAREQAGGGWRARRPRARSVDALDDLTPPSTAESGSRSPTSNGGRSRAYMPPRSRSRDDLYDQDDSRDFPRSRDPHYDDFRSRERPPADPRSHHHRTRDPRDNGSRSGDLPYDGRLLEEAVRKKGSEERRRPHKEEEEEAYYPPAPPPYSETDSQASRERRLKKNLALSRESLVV
Description: Kinetics of attachment of the LVPs to the LSR receptor of hepatocytes (PLC/PRF/5 cells), quantitative RT-PCR of HCV RNA. In kind it is cell-based. Conditions: 0.5 mM oleate vs without oleate, +4° C., 1 to 9 hours. Here is the method: A fraction containing LVPs with a density of between 1.025 g/ml and 1.055 g/ml was obtained from an HCV-positive serum as described in example 1.
The amount of proteins present in the LVP fraction was determined by the Lowry method using the “Protein Assay” kit (Sigma Diagnostics) and the viral titer was evaluated by quantification of the HCV RNA by RT-PCR and real-time fluorescence detection (LightCycler™, Roche) (Wittwer et al., Biotechniques, 22: 176-181 (1997)).
The PLC/PRF/5 cell line, described in example 2 and cultured in DMEM medium-10% SVF, was used for studying the attachment of LVPs to the LSR receptor in the presence or absence of oleate.
The results were obtained according to the following protocol:
The PLC/PRF/5 cells were seeded at 1 million cells/well, so as to obtain, after incubation for 24 hours at 37° C., 5% CO2, approximately 80% confluence.
Two washes in cold 1×PBS buffer were carried out, and then 1 ml of cold complete DMEM medium containing 0.2% of BSA is added to the PLC cells maintained on a bed of ice.
The LVP fraction (i.e. 10 mg of proteins and 1.7×10^6 of copies of HCV RNA) is added to the cells in the presence or absence of 0.5 mM oleate. […]
An incubation was carried out at +4° C. for a period of time ranging from 1 to 9 hours. […] The RNAs were then purified using this same kit and analyzed by quantitative RT-PCR (LightCycler™). […]

In the next data set the test system is hepatitis C virus. The data set is described as follows: Infection of PLC/PRF/5 cells with HCV-positive serum or LVP fractions, HCV genome in culture supernatants by semi-nested RT-PCR. The class given is cell-based, human. How it is done:
The culture medium used is DMEM medium (marketed by Gibco BRL) supplemented with: 1 mM of sodium pyruvate (Gibco), 1% of nonessential amino acids (Boehringer Mannheim), 2 mM of glutamine (Gibco BRL), 200 U/ml of penicillin (bioMérieux), […] of streptomycin (bioMérieux) and 10% of calf serum (Boehringer).
The cells originate from the PLC/PRF/5 cell line (Alexander cells) (ATCC reference: CRL 8024), which is a line established from a human hepatocarcinoma. This line, which has integrated a defective hepatitis B genome, secretes the HBs antigen of the hepatitis B virus but no infectious virus. The cells are cultured in the complete DMEM medium (Gibco-BRL) supplemented with 10% of foetal calf serum, mentioned above. The cells are washed with PBS (Gibco-BRL) preheated to 37° C. 1 ml of DMEM supplemented with 0.2% of BSA (Sigma) and 50 μg/ml of lipoproteins originating from each fraction or 100 μl of serum filtered over a 0.45μ membrane are added. Simultaneously, a solution of oleic acid in isopropanol, prepared beforehand (100 mM), is added in a concentration range of 0.1 to 0.8 mM. The cells are then subjected to incubation for 3 hours at 37° C. under a 5% CO2 atmosphere. The medium is then replaced with complete DMEM medium supplemented with 10% of foetal calf serum. The cells are returned to the incubator under the conditions described above. […]

Structures are written as SMILES.

Take `CC(C)c1nc(CN(C)C(=O)N[C@H](C(=O)N[C@@H](Cc2ccccc2)C[C@H](O)[C@H](Cc2ccccc2)NC(=O)OCc2cncs2)C(C)C)cs1` [Ritonavir]: the “HCV viremia and hepatic cytolysis” value with HCV is “increase in the HCV virema associated with hepatic cytolysis”.
Regarding `CCCCCCCC/C=C\CCCCCCCC(=O)O` [oleic acid], the “attachment of the LVPs to the LSR receptor (number of HCV RNA copies)” value on LSR receptor was “significantly increased”. Besides, the “pathway for endocytosis of the LVPs at the time of the infection” value in the data set with hepatitis C virus (LVP fractions with densities <1.0063, 1.0063-1.063 and >1.063 g/ml) is recorded as “facilitates the pathway for endocytosis of the LVPs”. Besides, the “presence of the HCV genome in the culture supernatants” value in the data set on hepatitis C virus (infection with 100 μl of serum of patients no. 1 and no. 2, with vs without 0.5 mM oleic acid) was “detected at a higher frequency”.

The values are drawn from patent US20040229336A1, “Method for in vitro culture of viruses of the togaviridae and flaviviridae families and uses” (Bio Merieux, priority 1999, published 2004).
